Laboratory results reported in patent US20180318386A1, “PEPTIDES AND METHODS OF TREATING ENDOMETRIOSIS USING THE SAME” (BIOINCEPT, LLC, priority 2014, published 2018).

Legend:
Lymphocytes = assay: FITC-PIF binding to mare immune cells, flow cytometry: lymphocytes; format: cell-based
From the text: (§1) Method: whole blood was collected from jugular vein of pregnant (n=4) and non-pregnant (n=8) mares into lithium heparin vacutainers. Whole blood was layered over histopaque (Sigma) density gradient and red cells were allowed to settle through the gradient, leaving a leukocyte-rich plasma layer above. Cells were washed twice in sterile PBS and any remaining RBCs lysed with 0.16 M ammonium chloride solution. […] Cell types were separated based upon their scatter characteristics. […] FIG. 20 and Table 20 show mean+/−SEM in both pregnant and non-pregnant mares, and depicts binding characteristics showing significant differences between FITC-PIF and control, P<0.001.

CD4+/CD25+/FoxP3+ cells = assay: FITC-PIF binding to regulatory T-cells, two- and three-color flow cytometry; format: cell-based, human; settings: 0-100 uM FITC-labelled peptide
Granulocytes = assay: FITC-PIF binding to mare immune cells, flow cytometry: granulocytes; format: cell-based
From the text: as §1

Monocytes = assay: FITC-PIF binding to mare immune cells, flow cytometry: monocytes; format: cell-based
From the text: as §1

[1] = Non-pregnant mares, 1 ug/ml FITC-labelled peptide (n = 8)
[2] = Non-pregnant mares, 5 ug/ml FITC-labelled peptide (n = 8)
[3] = Non-pregnant mares, 10 ug/ml FITC-labelled peptide (n = 7)
[4] = Pregnant mares, 1 ug/ml FITC-labelled peptide (n = 4)
[5] = Pregnant mares, 5 ug/ml FITC-labelled peptide (n = 4)
[6] = Pregnant mares, 10 ug/ml FITC-labelled peptide (n = 4)

Sequence: GRVDPSNKSMPKDIA (scrPIF-1 (15)) [PIFscr, control]
- binding to Lymphocytes, Mean (Lymphocytes; [1]): 0.27
- binding to Lymphocytes, Mean (Lymphocytes; [2]): 1.08
- binding to Lymphocytes, Mean (Lymphocytes; [3]): 2.04
- binding to Lymphocytes, Mean (Lymphocytes; [4]): 0.12
- binding to Lymphocytes, Mean (Lymphocytes; [5]): 0.78
- binding to Lymphocytes, Mean (Lymphocytes; [6]): 2.84
- binding to CD4+/CD25+/FoxP3+ cells (CD4+/CD25+/FoxP3+ cells): minimal binding
- binding to Granulocytes, Mean (Granulocytes; [1]): 0.26
- binding to Granulocytes, Mean (Granulocytes; [2]): 1.78
- binding to Granulocytes, Mean (Granulocytes; [3]): 3.89
- binding to Granulocytes, Mean (Granulocytes; [4]): 0.09
- binding to Granulocytes, Mean (Granulocytes; [5]): 0.93
- binding to Granulocytes, Mean (Granulocytes; [6]): 4.51
- binding to Monocytes, Mean (Monocytes; [1]): 1.10
- binding to Monocytes, Mean (Monocytes; [2]): 5.20
- binding to Monocytes, Mean (Monocytes; [3]): 12.39
- binding to Monocytes, Mean (Monocytes; [4]): 0.78
- binding to Monocytes, Mean (Monocytes; [5]): 6.36
- binding to Monocytes, Mean (Monocytes; [6]): 31.07
